Assay [1] is filed under the species Homo sapiens. The assay is described as follows: Inhibition of transglutaminase in human keratinocytes assessed as mean transglutaminase activity level at 5.0 10^-8M in presence of 10 uM retinal relative to retinal alone. In kind it is cell-based. On the set-up: scale not given: the % may be the effect or the level left.
The target of assay [2] is T1, Cellular retinoic acid-binding protein 2 (Homo sapiens) (UniProt P29373).
T1 sequence (whole entry): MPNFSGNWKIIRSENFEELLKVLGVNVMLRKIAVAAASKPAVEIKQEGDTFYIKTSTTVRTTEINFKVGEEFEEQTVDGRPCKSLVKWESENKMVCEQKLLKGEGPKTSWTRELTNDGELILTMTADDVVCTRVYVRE
The assay is described as follows: Inhibition of radioactive all-trans retinoic acid binding to CRABP2 (unknown origin) expressed in Escherichia coli BLR(DE3)pLys incubated for 1 hr by scintillation counting assay. The note with it: concentration not given here.

The species entered for assay [3] is Homo sapiens. Put plainly: Inhibition of transglutaminase in human keratinocytes assessed as mean transglutaminase activity level at 8.2 10^-6M in presence of 10 uM retinal relative to retinal alone. In kind it is cell-based. Details: scale not given: the % may be the effect or the level left.
For assay [4], the species on record is Homo sapiens.
Description: Inhibition of transglutaminase in human keratinocytes in presence of 10 uM retinal relative to retinal alone
The species named for assay [5] is Homo sapiens. Put plainly: Inhibition of transglutaminase in human keratinocytes assessed as mean transglutaminase activity level at 3.73 10^-4M in presence of 10 uM retinal relative to retinal alone. In kind it is cell-based. Details: scale not given: the % may be the effect or the level left.
For assay [6], the species on record is Homo sapiens. The assay is described as follows: Inhibition of transglutaminase in human keratinocytes assessed as mean transglutaminase activity level at 1.23 10^-5M in presence of 10 uM retinal relative to retinal alone. In kind it is cell-based. Details: scale not given: the % may be the effect or the level left.
The species named for assay [7] is Homo sapiens. The assay is described as follows: Inhibition of transglutaminase in human keratinocytes assessed as mean transglutaminase activity level at 4.1 10^-5M in presence of 10 uM retinal relative to retinal alone. It counts as cell-based. On the set-up: scale not given: the % may be the effect or the level left.
The species entered for assay [8] is Homo sapiens. The assay is described as follows: Inhibition of transglutaminase in human keratinocytes assessed as mean transglutaminase activity level at 1.65 10^-7M in presence of 10 uM retinal relative to retinal alone. On the set-up: scale not given: the % may be the effect or the level left. In kind it is cell-based.
Assay [9] is filed under the species Homo sapiens. Put plainly: Inhibition of transglutaminase in human keratinocytes assessed as mean transglutaminase activity level at 1.1 10^-4M in presence of 10 uM retinal relative to retinal alone. In kind it is cell-based. On the set-up: scale not given: the % may be the effect or the level left.
The species entered for assay [10] is Homo sapiens. The assay is described as follows: Inhibition of transglutaminase in human keratinocytes assessed as mean transglutaminase activity level at 1.1 10^-8M in presence of 10 uM retinal relative to retinal alone. In kind it is cell-based. On the set-up: scale not given: the % may be the effect or the level left.
The species entered for assay [11] is Rattus norvegicus. The assay is described as follows: Activation of retinol dehydrogenase in Sprague-Dawley rat liver microsomes assessed as increase in enzyme activity at 100 uM using all-trans retinol and NADP by HPLC analysis relative to control.
The species entered for assay [12] is Homo sapiens. The assay is described as follows: Inhibition of transglutaminase in human keratinocytes assessed as mean transglutaminase activity level at 2.4 10^-9M in presence of 10 uM retinal relative to retinal alone. It counts as cell-based. Details: scale not given: the % may be the effect or the level left.
The species named for assay [13] is Homo sapiens. The assay is described as follows: Inhibition of transglutaminase in human keratinocytes assessed as mean transglutaminase activity level at 6 10^-8M in presence of 10 uM retinal relative to retinal alone. In kind it is cell-based. On the set-up: scale not given: the % may be the effect or the level left.
The species named for assay [14] is Homo sapiens. The assay is described as follows: Inhibition of transglutaminase in human keratinocytes assessed as mean transglutaminase activity level at 1.2 10^-8M in presence of 10 uM retinal relative to retinal alone. Details: scale not given: the % may be the effect or the level left. It counts as cell-based.
The species entered for assay [15] is Homo sapiens. Put plainly: Inhibition of transglutaminase in human keratinocytes assessed as mean transglutaminase activity level at 1.63 10^-6M in presence of 10 uM retinal relative to retinal alone. In kind it is cell-based. On the set-up: scale not given: the % may be the effect or the level left.
The species entered for assay [16] is Homo sapiens. The assay is described as follows: Inhibition of transglutaminase in human keratinocytes assessed as mean transglutaminase activity level at 5.43 10^-7M in presence of 10 uM retinal relative to retinal alone. In kind it is cell-based. Details: scale not given: the % may be the effect or the level left.
For assay [17], the species on record is Homo sapiens. Put plainly: Inhibition of transglutaminase in human keratinocytes assessed as mean transglutaminase activity level at 4.4 10^-5M in presence of 10 uM retinal relative to retinal alone. In kind it is cell-based. On the set-up: scale not given: the % may be the effect or the level left.
The species entered for assay [18] is Homo sapiens. Put plainly: Inhibition of transglutaminase in human keratinocytes assessed as mean transglutaminase activity level at 1.47 10^-5M in presence of 10 uM retinal relative to retinal alone. In kind it is cell-based. Details: scale not given: the % may be the effect or the level left.
Assay [19] is filed under the species Homo sapiens. The assay is described as follows: Inhibition of transglutaminase in human keratinocytes assessed as mean transglutaminase activity level at 1.8 10^-7M in presence of 10 uM retinal relative to retinal alone. It counts as cell-based. On the set-up: scale not given: the % may be the effect or the level left.
For assay [20], the species on record is Homo sapiens. The assay is described as follows: Inhibition of transglutaminase in human keratinocytes assessed as mean transglutaminase activity level at 4.89 10^-6M in presence of 10 uM retinal relative to retinal alone. Details: scale not given: the % may be the effect or the level left. It counts as cell-based.
For assay [21], the species on record is Homo sapiens. The assay is described as follows: Inhibition of transglutaminase in human keratinocytes assessed as mean transglutaminase activity level at 9.0 10^-3M in presence of 10 uM retinal relative to retinal alone. It counts as cell-based. On the set-up: scale not given: the % may be the effect or the level left.
The species named for assay [22] is Homo sapiens. Put plainly: Inhibition of transglutaminase in human keratinocytes assessed as mean transglutaminase activity level at 1.0 10^-3M in presence of 10 uM retinal relative to retinal alone. In kind it is cell-based. On the set-up: scale not given: the % may be the effect or the level left.
For assay [23], the species on record is Homo sapiens. Put plainly: Inhibition of transglutaminase in human keratinocytes assessed as mean transglutaminase activity level at 3.29 10^-7M in presence of 10 uM retinal relative to retinal alone. Details: scale not given: the % may be the effect or the level left. In kind it is cell-based.
For assay [24], the species on record is Rattus norvegicus. The assay is described as follows: Inhibition of retinal reductase in Sprague-Dawley rat liver microsomes at 100 uM using all-trans retinaldehyde and NADPH by HPLC analysis relative to control.
For assay [25], the species on record is Homo sapiens. Put plainly: Inhibition of transglutaminase in human keratinocytes assessed as mean transglutaminase activity level at 3.0 10^-3M in presence of 10 uM retinal relative to retinal alone. It counts as cell-based. Details: scale not given: the % may be the effect or the level left.
The species entered for assay [26] is Homo sapiens. Put plainly: Inhibition of transglutaminase in human keratinocytes assessed as mean transglutaminase activity level at 3 10^-5M in presence of 10 uM retinal relative to retinal alone. It counts as cell-based. On the set-up: scale not given: the % may be the effect or the level left.
The species named for assay [27] is Homo sapiens. The assay is described as follows: Inhibition of transglutaminase in human keratinocytes assessed as mean transglutaminase activity level at 1.1 10^-6M in presence of 10 uM retinal relative to retinal alone. In kind it is cell-based. Details: scale not given: the % may be the effect or the level left.
The species named for assay [28] is Homo sapiens. The assay is described as follows: Inhibition of transglutaminase in human keratinocytes assessed as mean transglutaminase activity level at 1.65 10^-9M in presence of 10 uM retinal relative to retinal alone. In kind it is cell-based. Details: scale not given: the % may be the effect or the level left.
For assay [29], the species on record is Homo sapiens. The assay is described as follows: Inhibition of transglutaminase in human keratinocytes assessed as mean transglutaminase activity level at 4.1 10^-8M in presence of 10 uM retinal relative to retinal alone. In kind it is cell-based. Details: scale not given: the % may be the effect or the level left.
The species named for assay [30] is Homo sapiens. Put plainly: Inhibition of transglutaminase in human keratinocytes assessed as mean transglutaminase activity level at 3.3 10^-6M in presence of 10 uM retinal relative to retinal alone. Details: scale not given: the % may be the effect or the level left. It counts as cell-based.
Assay [31] is filed under the species Homo sapiens. Put plainly: Inhibition of transglutaminase in human keratinocytes assessed as mean transglutaminase activity level at 3.73 10^-7M in presence of 10 uM retinal relative to retinal alone. In kind it is cell-based. On the set-up: scale not given: the % may be the effect or the level left.
The species named for assay [32] is Homo sapiens. The assay is described as follows: Inhibition of transglutaminase in human keratinocytes assessed as mean transglutaminase activity level at 8.2 10^-8M in presence of 10 uM retinal relative to retinal alone. It counts as cell-based. Details: scale not given: the % may be the effect or the level left.
The species named for assay [33] is Homo sapiens. The assay is described as follows: Inhibition of transglutaminase in human keratinocytes assessed as mean transglutaminase activity level at 1 10^-5M in presence of 10 uM retinal relative to retinal alone. In kind it is cell-based. Details: scale not given: the % may be the effect or the level left.
The species named for assay [34] is Homo sapiens. Put plainly: Inhibition of transglutaminase in human keratinocytes assessed as mean transglutaminase activity level at 1.23 10^-7M in presence of 10 uM retinal relative to retinal alone. It counts as cell-based. On the set-up: scale not given: the % may be the effect or the level left.

For `O=C(O)CCCCCCCCCCCCCCC(=O)O`, the Activity in assay [1] stood at 74%; in [3] it was 114%; in assay [5], 43.4%; in [6] it was 130%; in assay [7], 105%; in assay [8], 95%. Further, the Activity in assay [9] stood at 14.2%; in [10], 70%. Also, in assay [2], the inhibition (usually the relative decrease from the control value, in per cent) was > 50%. Also, the IC20 in [4] was 8.4 ×10⁻⁵ M.
In the case of `CCCCCCCC/C=C\CCCCCCCC(=O)OC[C@H](COP(=O)([O-])OCC[N+](C)(C)C)OC(=O)CCCCCCCCCCCCCCC`, the Activity worked out at 21% in assay [11]; 85.5% in assay [12]; 87.8% in [13]; 159% in [14]; 98.8% in [15]; 86.7% in assay [16]. Moreover, the Activity in assay [17] was found to be 90.9%; in [18] it was 120%; in assay [19] it was 75.9%; in [20], 70.1%.
With `CC/C=C\C/C=C\C/C=C\CCCCCCCC(=O)O`, the Activity in assay [21] was -11%; in [22], -7.5%; in [3] it was 119%; in [23] it was 98%; in assay [25], -5.7%; in assay [5] it was 68%. The Activity was 94.9% in [6], 65.9% in assay [7], 77% in assay [8] and -23% in [9]. This compound returned an IC20 in assay [4] of 1.21 ×10⁻⁴ M. This compound displayed an inhibition in assay [24] of 54%.
As to `CCCCCCCC/C=C\CCCCCCCCCCCCCC(=O)N[C@@H](COP(=O)([O-])OCC[N+](C)(C)C)[C@H](O)/C=C/CCCCCCCCCCCCC`, the Activity in assay [26] worked out at 45%; in assay [11], 26%; in [27], 98.8%; in [28], 68.4%; in assay [29], 74.6%; in assay [30] it was 76.4%. Further, the Activity in assay [31] was found to be 91.6%; in assay [32], 115%; in assay [33], 77.8%; in assay [34] it was 70%.
Regarding `CC(C)CCCCCCCCCCCCCCC(=O)O`, the Activity was -8.6% in [22]; 78% in assay [1]; 103% in assay [3]; 123% in [23]; -5.3% in [5]; 80% in assay [6]. The Activity worked out at 67% in [7], 95% in assay [8], 1.2% in [9] and 78% in assay [10]. In [2], the inhibition was > 50%. In assay [4], this compound came in with an IC20 of 6.23 ×10⁻⁵ M.

The values are drawn from ChEMBL document CHEMBL4420071, “Method for treating skin with retinoids and retinoid boosters” (2013).
